Results published in ChEMBL document CHEMBL1201862, “PubChem BioAssay data set” (2004).
Each block holds one compound with its values, some of them ahead of it. Activity calls are given as the source filed them.

Key:
[1] = biological target: T1, Estrogen receptor beta (Homo sapiens, UniProt Q92731);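 further: recombinant ER-beta bound to coactivator SRC1 peptide in presence of estradiol agonist; inhibitors block coactivator peptide binding and lower the FRET signal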
[2] = biological target: T2, Bcl-2-like protein 10 (Homo sapiens, UniProt Q9HD36); experiment: displacers of TR3 peptide from Bcl-B, primary screen, selectivity assay for Bfl-1 inhibitor project, biochemical, fluorescence polarization, FITC-TR3 peptide (AID 748);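 further: fluorescence polarization from a fluorescein-labelled TR3 peptide binding purified Bcl-B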
T2 sequence (Q9HD36 whole entry): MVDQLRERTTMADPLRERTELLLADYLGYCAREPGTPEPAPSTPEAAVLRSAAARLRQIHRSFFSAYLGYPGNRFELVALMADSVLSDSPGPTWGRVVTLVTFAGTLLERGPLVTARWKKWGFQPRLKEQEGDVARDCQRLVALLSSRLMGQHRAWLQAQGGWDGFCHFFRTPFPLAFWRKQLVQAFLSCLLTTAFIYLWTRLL

[3] = biological target: T1, Estrogen receptor beta; experiment: ERβ–SRC-3 coactivator interaction inhibitors, confirmation, orthogonal assay, biochemical, ELISA, streptavidin-HRP readout (AID 1060)
[4] = tested on: HEK293; experiment: inhibitors of LMP1-driven NF-kB reporter, dose response, cell-based, HEK293, luciferase, cherry-pick (AID 588343); assay type: functional; conditions: Homo sapiens
[5] = biological target: T3, Heat shock factor protein 1 (Mus musculus, UniProt P38532); experiment: inhibition of MG132-induced HSE-luciferase signal, confirmation, cell-based, NIH3T3, luminescence, dose retest (AID 2382); assay type: functional;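 further: NIH3T3 fibroblasts with HSF1-driven luciferase reporter stressed by proteasome inhibitor MG132; luminescence from HSF1-driven luciferase expression after 8 hours of MG132 stress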
T3 sequence (P38532 whole entry): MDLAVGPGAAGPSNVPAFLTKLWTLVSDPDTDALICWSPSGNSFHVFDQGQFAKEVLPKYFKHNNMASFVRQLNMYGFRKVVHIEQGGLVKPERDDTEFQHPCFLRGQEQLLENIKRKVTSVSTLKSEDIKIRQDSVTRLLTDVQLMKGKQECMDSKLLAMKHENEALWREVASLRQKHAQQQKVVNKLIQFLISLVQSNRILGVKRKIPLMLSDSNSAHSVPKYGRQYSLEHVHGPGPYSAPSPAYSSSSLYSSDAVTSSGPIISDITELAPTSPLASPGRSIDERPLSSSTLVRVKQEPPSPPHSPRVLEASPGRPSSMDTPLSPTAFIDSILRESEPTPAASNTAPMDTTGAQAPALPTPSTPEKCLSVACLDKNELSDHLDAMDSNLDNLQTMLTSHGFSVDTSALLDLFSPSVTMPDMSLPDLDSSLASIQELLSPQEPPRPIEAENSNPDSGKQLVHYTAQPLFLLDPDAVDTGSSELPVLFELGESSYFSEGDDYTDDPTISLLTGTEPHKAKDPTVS

[6] = biological target: T4, X-box-binding protein 1 (Homo sapiens, UniProt P17861); assay type: functional, Cricetulus griseus;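 further: confirmatory dose-response counter-screen serving a CHOP assay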
T4 sequence (P17861 whole entry): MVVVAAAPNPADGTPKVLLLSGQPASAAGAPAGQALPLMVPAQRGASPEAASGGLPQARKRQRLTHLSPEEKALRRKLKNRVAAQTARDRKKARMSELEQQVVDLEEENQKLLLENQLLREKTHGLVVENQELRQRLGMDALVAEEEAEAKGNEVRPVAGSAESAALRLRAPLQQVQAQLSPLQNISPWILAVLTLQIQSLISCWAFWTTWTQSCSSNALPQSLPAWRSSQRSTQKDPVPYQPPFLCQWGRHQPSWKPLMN

[7] = biological target: G-protein coupled receptor 55 (Homo sapiens, UniProt Q9Y2T6); experiment: GPR55 agonists via beta-arrestin recruitment, primary screen, imaging, U2OS cells, beta-arrestin-GFP redistribution (AID 1961); assay type: functional
[8] = tested on: HEK293; experiment: cells; conditions: Homo sapiens
[9] = biological target: T5, Nucleotide-binding oligomerization domain-containing protein 1 (Homo sapiens, UniProt Q9Y239); experiment: NOD1 signaling inhibitors, SAR follow-up, revised (AID 2333); assay type: functional
T5 sequence (Q9Y239 whole entry): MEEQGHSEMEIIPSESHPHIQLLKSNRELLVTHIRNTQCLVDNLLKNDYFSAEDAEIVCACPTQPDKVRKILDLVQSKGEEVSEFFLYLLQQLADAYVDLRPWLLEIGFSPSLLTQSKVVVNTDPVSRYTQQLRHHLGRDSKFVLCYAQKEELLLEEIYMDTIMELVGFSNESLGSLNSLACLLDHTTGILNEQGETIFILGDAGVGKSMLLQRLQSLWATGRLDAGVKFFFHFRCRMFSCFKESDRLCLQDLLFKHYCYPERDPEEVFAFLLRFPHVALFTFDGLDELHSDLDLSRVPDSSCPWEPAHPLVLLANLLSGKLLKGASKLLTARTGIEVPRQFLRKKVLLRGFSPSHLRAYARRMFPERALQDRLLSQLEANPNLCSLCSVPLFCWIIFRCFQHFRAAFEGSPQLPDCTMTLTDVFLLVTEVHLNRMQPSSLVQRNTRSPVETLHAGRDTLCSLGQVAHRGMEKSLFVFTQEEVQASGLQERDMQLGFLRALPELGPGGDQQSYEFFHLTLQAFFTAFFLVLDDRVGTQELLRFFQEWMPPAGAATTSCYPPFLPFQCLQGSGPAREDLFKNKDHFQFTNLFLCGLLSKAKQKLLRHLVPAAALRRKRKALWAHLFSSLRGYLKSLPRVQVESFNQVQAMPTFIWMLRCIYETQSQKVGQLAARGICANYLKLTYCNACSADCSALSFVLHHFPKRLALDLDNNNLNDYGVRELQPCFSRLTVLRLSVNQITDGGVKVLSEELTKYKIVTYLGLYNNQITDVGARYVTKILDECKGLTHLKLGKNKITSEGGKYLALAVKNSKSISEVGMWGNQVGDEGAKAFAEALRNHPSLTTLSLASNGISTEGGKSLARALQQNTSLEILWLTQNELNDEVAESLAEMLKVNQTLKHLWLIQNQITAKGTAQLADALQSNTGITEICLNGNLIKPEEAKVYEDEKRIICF

[10] = biological target: Tumor necrosis factor (Homo sapiens, UniProt P01375); experiment: TNFa-triggered NF-kB activation inhibitors, SAR follow-up, cell-based, revised (AID 2337); assay type: functional
[11] = biological target: Nucleotide-binding oligomerization domain-containing protein 2 (Homo sapiens, UniProt Q9HC29); experiment: PubChem AID 2334; assay type: functional
[12] = Artemis endonuclease inhibitor potency, dose response, biochemical, fluorescence intensity (AID 720701); assay type: functional;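 further: Artemis endonuclease enzyme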
[13] = biological target: Protein-tyrosine kinase 2-beta (Homo sapiens, UniProt Q14289);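 further: potency of inhibitors of PYK2 kinase phosphorylation of poly-GT substrate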
[14] = biological target: T6, Estrogen receptor (Homo sapiens, UniProt P03372);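 further: potency for inhibiting coactivator peptide recruitment to the receptor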
T6 sequence (P03372 whole entry): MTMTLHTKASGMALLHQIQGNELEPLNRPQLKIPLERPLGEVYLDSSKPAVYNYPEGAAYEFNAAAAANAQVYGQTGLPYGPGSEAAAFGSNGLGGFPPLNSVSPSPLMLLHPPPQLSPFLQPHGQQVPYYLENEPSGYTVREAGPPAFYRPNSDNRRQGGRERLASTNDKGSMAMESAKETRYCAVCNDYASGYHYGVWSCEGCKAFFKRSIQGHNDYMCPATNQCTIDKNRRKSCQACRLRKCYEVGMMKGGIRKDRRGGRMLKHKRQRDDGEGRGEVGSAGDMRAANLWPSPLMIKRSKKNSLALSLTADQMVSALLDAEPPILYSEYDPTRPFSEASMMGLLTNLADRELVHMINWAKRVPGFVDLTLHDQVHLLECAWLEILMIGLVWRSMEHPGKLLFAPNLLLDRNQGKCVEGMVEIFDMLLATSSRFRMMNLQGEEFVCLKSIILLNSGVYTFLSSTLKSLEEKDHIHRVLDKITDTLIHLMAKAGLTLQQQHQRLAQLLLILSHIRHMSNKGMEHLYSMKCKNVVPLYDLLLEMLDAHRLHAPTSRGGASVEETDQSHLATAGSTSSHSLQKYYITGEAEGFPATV

Nucleotide-binding oligomerization domain-containing protein 2, sequence (Q9HC29 whole entry, the tested form may be a part): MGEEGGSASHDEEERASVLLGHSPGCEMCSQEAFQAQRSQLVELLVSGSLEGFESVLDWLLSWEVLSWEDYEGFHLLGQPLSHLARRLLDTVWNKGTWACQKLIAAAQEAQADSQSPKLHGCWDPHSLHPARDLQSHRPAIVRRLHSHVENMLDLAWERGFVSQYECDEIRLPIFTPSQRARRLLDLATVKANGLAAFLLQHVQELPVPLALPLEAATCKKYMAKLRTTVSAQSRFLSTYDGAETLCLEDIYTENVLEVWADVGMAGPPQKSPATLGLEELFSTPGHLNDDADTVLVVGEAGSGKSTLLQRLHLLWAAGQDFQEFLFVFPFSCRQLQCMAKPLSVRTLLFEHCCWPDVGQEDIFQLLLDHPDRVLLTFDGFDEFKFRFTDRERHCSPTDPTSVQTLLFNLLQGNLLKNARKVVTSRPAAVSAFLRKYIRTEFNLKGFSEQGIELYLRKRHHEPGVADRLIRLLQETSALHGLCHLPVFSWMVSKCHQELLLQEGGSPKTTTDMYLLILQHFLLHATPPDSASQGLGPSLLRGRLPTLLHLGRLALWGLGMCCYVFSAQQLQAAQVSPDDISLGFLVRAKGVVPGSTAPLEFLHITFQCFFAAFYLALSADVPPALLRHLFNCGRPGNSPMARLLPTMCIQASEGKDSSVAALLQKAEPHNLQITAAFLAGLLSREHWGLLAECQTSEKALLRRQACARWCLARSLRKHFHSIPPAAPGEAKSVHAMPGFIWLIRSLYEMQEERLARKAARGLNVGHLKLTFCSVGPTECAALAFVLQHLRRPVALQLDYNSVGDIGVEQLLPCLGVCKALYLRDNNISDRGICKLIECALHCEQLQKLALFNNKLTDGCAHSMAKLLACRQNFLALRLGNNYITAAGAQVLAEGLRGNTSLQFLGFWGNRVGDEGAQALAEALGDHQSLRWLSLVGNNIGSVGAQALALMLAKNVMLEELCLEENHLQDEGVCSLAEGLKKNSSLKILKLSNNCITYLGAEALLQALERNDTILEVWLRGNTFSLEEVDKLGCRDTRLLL
Tumor necrosis factor, sequence (P01375 whole entry, the tested form may be a part): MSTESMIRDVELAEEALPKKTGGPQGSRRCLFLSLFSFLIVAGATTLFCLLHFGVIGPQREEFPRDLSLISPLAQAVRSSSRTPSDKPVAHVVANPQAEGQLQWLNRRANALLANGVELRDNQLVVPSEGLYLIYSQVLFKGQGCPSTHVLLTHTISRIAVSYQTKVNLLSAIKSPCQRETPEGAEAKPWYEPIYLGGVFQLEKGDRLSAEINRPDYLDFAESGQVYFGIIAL
G-protein coupled receptor 55, sequence (Q9Y2T6 whole entry): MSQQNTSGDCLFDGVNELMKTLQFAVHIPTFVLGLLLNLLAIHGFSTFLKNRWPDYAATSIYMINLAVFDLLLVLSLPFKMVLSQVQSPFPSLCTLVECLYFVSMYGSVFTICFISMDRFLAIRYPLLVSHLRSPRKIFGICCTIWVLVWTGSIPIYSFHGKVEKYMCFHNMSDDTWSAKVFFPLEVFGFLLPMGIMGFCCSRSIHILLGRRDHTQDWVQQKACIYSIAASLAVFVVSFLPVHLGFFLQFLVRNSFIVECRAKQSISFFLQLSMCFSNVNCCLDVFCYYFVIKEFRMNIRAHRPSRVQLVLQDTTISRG
T1 sequence (Q92731 whole entry): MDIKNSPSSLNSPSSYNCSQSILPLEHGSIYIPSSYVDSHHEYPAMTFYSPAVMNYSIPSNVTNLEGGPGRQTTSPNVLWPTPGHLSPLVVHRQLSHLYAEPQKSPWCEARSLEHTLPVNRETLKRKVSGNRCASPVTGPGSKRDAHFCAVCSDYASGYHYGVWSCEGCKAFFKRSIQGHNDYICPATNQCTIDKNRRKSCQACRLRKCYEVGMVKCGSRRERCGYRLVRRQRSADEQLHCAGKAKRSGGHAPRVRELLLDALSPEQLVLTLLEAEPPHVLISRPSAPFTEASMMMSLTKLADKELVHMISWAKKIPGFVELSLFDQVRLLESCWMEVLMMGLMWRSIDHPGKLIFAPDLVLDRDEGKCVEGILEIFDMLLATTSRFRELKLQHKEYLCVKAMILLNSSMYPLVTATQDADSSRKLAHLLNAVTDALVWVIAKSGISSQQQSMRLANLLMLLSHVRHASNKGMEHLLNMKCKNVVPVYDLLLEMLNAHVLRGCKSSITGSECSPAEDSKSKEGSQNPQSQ
Protein-tyrosine kinase 2-beta, sequence (Q14289 whole entry): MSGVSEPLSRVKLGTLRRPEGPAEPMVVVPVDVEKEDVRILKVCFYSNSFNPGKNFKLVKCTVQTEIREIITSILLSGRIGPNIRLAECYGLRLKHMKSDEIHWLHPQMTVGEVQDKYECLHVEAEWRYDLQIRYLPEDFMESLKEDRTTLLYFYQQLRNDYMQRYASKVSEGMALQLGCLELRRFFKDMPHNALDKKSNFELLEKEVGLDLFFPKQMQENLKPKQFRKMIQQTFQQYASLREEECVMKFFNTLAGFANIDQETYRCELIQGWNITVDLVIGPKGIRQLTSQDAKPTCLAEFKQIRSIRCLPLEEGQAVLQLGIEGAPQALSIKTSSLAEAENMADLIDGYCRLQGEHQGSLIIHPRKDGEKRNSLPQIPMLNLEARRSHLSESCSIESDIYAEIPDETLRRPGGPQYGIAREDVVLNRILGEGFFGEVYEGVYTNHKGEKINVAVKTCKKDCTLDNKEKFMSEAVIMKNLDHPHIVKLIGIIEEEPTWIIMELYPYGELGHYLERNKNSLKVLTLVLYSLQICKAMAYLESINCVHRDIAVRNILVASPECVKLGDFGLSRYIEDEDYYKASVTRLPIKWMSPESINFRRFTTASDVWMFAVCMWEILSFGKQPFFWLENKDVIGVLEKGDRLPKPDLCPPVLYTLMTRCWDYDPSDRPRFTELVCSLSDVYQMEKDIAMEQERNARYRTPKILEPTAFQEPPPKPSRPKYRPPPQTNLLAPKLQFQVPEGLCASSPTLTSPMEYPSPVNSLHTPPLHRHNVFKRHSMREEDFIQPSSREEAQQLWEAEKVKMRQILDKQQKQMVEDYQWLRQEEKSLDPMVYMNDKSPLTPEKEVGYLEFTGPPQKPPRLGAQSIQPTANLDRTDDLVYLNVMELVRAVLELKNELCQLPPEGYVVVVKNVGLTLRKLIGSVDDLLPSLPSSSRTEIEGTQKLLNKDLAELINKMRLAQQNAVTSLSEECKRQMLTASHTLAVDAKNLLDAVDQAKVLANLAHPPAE

IC50 [1]: 11.1 µM (active)
IC50 [2]: 41.5 µM (active)
IC50 [3]: < 77 µM (not active)
Compound: O=C(COC(=O)CN1C(=O)c2ccccc2C1=O)Nc1ncc(Cl)cc1Cl

IC50 [2]: > 25 µM (inactive)
Compound: Cc1cccn2c(=O)c3cc(C(=O)NCC4CCCO4)c(=N)n(Cc4cccnc4)c3nc12 (configuration not stated)

Absolute IC50 (XBP1) [6]: 10 µM
Compound: Cc1ccc(/C=N/NC(=O)CSCc2ccc(Cl)cc2)cc1

EC50 [7]: 7.35 µM (active)
Compound: CC(=O)OC(c1nc2ccccc2c(=O)n1C1CC2(OC1=O)c1ccccc1N1C(=O)C(C)(C)N(O)C12)C(C)C (configuration not stated)

EC50 [7]: 5.59 µM (active)
Compound: CN1/C(=C\C(=O)COC(=O)c2ccco2)C(C)(C)c2ccccc21

Further lines, the compound ahead of its results:

Compound: COc1ccc(CCNC(=O)c2nnn(-c3ccc4c(c3)OCCO4)c2N)cc1OC
AC50 [4]: 0.786 µM (active)
EC50 [5]: 0.44 µM (active)
Absolute IC50 (XBP1) [6]: 10 µM

Compound: Cc1ccccc1C(=O)Nc1nc2ccccc2n1Cc1ccc(Cl)cc1
IC50 [8]: > 20 µM (inactive)
IC50 [9]: > 20 µM (inactive)
IC50 [10]: > 20 µM (inactive)
IC50 [11]: > 20 µM (inactive)

Compound: O=C(Nc1ccc(N2CCCC2)cc1)C(c1ccccc1)c1ccccc1
IC50 [12]: > 20 µM (inactive)
IC50 [2]: 18.9 µM (active)
IC50 [13]: 11.6 µM (not active)
IC50 [14]: 7.09 µM (active)

Compound: O=C(C1CC1)N1CCc2cc(S(=O)(=O)N3CCN(c4ccc([N+](=O)[O-])cc4)CC3)ccc21
IC50 [8]: > 20 µM (inactive)
IC50 [9]: 6.5 µM (active)
IC50 [10]: 12.4 µM (active)
IC50 [11]: 8.44 µM (active)
